EC50 data for 1 compound are collected here from publication PMC8151892, “Partial Agonist Activity of Neonicotinoids on Rat Nicotinic Receptors: Consequences over Epinephrine Secretion and In Vivo Blood Pressure” (International Journal of Molecular Sciences, 2021).

The test addresses T1, α3β4 nicotinic acetylcholine receptor (α3 subunit) (Rattus norvegicus, UniProt P04757+P12392).
T1 construct: gene Chrna3; complete open reading frames of rat α3 and β4 subunits, RNA 1:1, Xenopus oocytes; with nAChR β4 subunit (Chrnb4)
The test is described as follows: two-electrode voltage clamp in Xenopus oocytes (partial agonist). Type of test: cell-based. Background: In two-electrode clamp one electrode senses voltage and the other passes current.

T1 sequence (P04757 26-499): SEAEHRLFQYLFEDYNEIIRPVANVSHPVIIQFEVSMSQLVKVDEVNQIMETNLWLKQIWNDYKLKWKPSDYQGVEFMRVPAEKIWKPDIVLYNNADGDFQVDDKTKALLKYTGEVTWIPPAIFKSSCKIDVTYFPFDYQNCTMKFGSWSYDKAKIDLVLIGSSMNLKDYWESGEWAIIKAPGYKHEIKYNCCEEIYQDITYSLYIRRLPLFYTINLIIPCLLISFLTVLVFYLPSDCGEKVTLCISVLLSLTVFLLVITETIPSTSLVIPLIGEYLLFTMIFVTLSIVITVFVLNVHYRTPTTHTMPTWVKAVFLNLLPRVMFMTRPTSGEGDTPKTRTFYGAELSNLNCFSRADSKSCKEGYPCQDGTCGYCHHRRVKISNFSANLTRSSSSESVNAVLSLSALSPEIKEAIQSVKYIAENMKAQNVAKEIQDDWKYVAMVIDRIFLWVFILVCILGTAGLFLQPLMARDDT
T1 sequence (P12392 21-495): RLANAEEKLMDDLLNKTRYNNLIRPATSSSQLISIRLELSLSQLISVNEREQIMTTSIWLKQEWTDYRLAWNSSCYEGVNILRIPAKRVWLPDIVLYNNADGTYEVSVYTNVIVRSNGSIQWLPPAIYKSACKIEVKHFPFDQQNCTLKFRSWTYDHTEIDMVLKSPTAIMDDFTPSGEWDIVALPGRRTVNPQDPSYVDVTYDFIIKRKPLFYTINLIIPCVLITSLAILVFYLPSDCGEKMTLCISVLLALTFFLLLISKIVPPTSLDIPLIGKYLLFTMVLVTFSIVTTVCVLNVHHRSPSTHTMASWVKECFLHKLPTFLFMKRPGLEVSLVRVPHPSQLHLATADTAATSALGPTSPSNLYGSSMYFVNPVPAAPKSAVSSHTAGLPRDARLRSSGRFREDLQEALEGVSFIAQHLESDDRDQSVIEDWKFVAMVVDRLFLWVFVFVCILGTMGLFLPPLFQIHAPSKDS

The EC50 is the concentration needed to bring the measured effect to its halfway point. Higher therefore signals a need for much substance. `CN/C(=N\[N+](=O)[O-])NCc1cnc(Cl)s1` [CLO, clothianidin]: the half-maximal effective concentration (EC50) was found to be 8.39 ± 0.77 mM.
